Measurements from ChEMBL document CHEMBL1136937, “Discovery of a potent class I selective ketone histone deacetylase inhibitor with antitumor activity in vivo and optimized pharmacokinetic properties” (J Med Chem, 2009).

Test system: A2780
Experiment: Antiproliferative activity against human A2780 cells after 72 hrs by celltiter-blue cell viability assay
Type: functional
Details: A2780, 72 h

SMILES	CC50 [µM]
Nc1ccccc1NC(=O)c1ccc(CNC(=O)OCc2cccnc2)cc1 [ENTINOSTAT]	3

Test system: HCT-116
Experiment: Antiproliferative activity against human P53 expressing HCT116 cells after 72 hrs by celltiter-blue cell viability assay
Type: functional
Details: not given

SMILES	CC50 [µM]
O=C(CCCCCCC(=O)Nc1ccccc1)NO [VORINOSTAT]	1

Same assay, conditions: Homo sapiens, HCT-116, 72 h

SMILES	CC50 [µM]
Nc1ccccc1NC(=O)c1ccc(CNC(=O)OCc2cccnc2)cc1 [ENTINOSTAT]	0.7

Test system: G-401
Experiment: Antiproliferative activity against human G401 cells after 72 hrs by celltiter-blue cell viability assay
Type: functional
Details: not given

SMILES	CC50 [µM]
O=C(CCCCCCC(=O)Nc1ccccc1)NO [VORINOSTAT]	1

Same assay, conditions: Homo sapiens, G-401, 72 h

SMILES	CC50 [µM]
Nc1ccccc1NC(=O)c1ccc(CNC(=O)OCc2cccnc2)cc1 [ENTINOSTAT]	1.3

Test system: not listed separately
Experiment: Clearance in Sprague-Dawley rat plasma at 3 mg/kg, iv and 3 mg/kg, po
Type: ADME, organism-based
Details: not given

SMILES	clearance [mL/min/kg]
CCC(=O)CCCCC[C@H](NC(=O)CCN(C)C)c1ncc(-c2cc(OC)c3ccccc3n2)[nH]1	59
CCC(=O)CCCCC[C@H](NC(=O)C1CCN(C)CC1)c1ncc(-c2cc(OC)c3ccccc3n2)[nH]1	36

More lines, now with the values ahead:

clearance [mL/min/kg]	SMILES
155	CCC(=O)CCCCC[C@H](NC(=O)C1CCN(C)CC1)c1ncc(-c2ccc3ccccc3n2)[nH]1
20	CCC(=O)CCCCC[C@H](NC(=O)C1CN(C)C1)c1ncc(-c2cc(OC)c3ccccc3n2)[nH]1

Test system: Liver microsomes
Experiment: (§1) Metabolic stability in human liver microsomes assessed as intrinsic clearance at 1 uM after 90 mins
Type: ADME, Microsome
Details: microsomes, 1.5 h, 1 µM

SMILES	CL [µL/min/mg]
CC(=O)CCCCC[C@H](NC(=O)C1CCN(C)CC1)c1ncc(-c2ccc3ccccc3c2)[nH]1	194

Test system: not listed separately
Experiment: as §1
Type: ADME, Microsome
Details: liver microsomes

SMILES	microsomal CLint at 1 µM [µL/min/mg]
CCC(=O)CCCCC[C@H](NC(=O)CCN(C)C)c1ncc(-c2cc(OC)c3ccccc3n2)[nH]1	15
CCC(=O)CCCCC[C@H](NC(=O)C1CCN(C)CC1)c1ncc(-c2cc(OC)c3ccccc3n2)[nH]1	10
CCC(=O)CCCCC[C@H](NC(=O)C1CCN(C)CC1)c1ncc(-c2ccc3ccccc3c2)[nH]1	194
CCC(=O)CCCCC[C@H](NC(=O)C1CN(C)C1)c1ncc(-c2ccc3nccnc3c2)[nH]1	< 1
CCC(=O)CCCCC[C@H](NC(=O)C1CCN(C)CC1)c1ncc(-c2cc3ccccc3cn2)[nH]1	29

Other lines, results leading:

microsomal CLint at 1 µM [µL/min/mg]	SMILES
19	CCC(=O)CCCCC[C@H](NC(=O)C1CN(C)C1)c1ncc(-c2cnc3ccccc3n2)[nH]1
12	CCC(=O)CCCCC[C@H](NC(=O)C1CCN(C)CC1)c1ncc(-c2ccc3ccccc3n2)[nH]1
12	CCC(=O)CCCCC[C@H](NC(=O)C1CCN(C)CC1)c1ncc(-c2ccc3ncccc3c2)[nH]1
16	CCC(=O)CCCCC[C@H](NC(=O)C1CN(C)C1)c1ncc(-c2cc(OC)c3ccccc3n2)[nH]1
18	CCC(=O)CCCCC[C@H](NC(=O)C1CN(C)C1)c1ncc(-c2cc3ccccc3nc2F)[nH]1
140	CCC(=O)CCCCC[C@H](NC(=O)CCN1CCN(C)CC1)c1ncc(-c2cc(OC)c3ccccc3n2)[nH]1
49	CCC(=O)CCCCC[C@H](NC(=O)C1CCN(C)CC1)c1ncc(-c2cnc3ccccc3c2)[nH]1

Test system: HeLa
Experiment: Antiproliferative activity against human P53-deficient HeLa cells after 72 hrs by celltiter-blue cell viability assay
Type: functional
Details: not given

SMILES	CC50 [µM]
CCC(=O)CCCCC[C@H](NC(=O)C1CN(C)C1)c1ncc(-c2cnc3ccccc3n2)[nH]1	0.43
CCC(=O)CCCCC[C@H](NC(=O)CCN(C)C)c1ncc(-c2cc(OC)c3ccccc3n2)[nH]1	0.5
CCC(=O)CCCCC[C@H](NC(=O)C1CCN(C)CC1)c1ncc(-c2cc(OC)c3ccccc3n2)[nH]1	0.77
CCC(=O)CCCCC[C@H](NC(=O)C1CCN(C)CC1)c1ncc(-c2ccc3ccccc3n2)[nH]1	0.48
CCC(=O)CCCCC[C@H](NC(=O)C1CCN(C)CC1)c1ncc(-c2ccc3ccccc3c2)[nH]1	0.21
CCC(=O)CCCCC[C@H](NC(=O)C1CCN(C)CC1)c1ncc(-c2ccc3ncccc3c2)[nH]1	0.2
CCC(=O)CCCCC[C@H](NC(=O)C1CN(C)C1)c1ncc(-c2cc(OC)c3ccccc3n2)[nH]1	0.97
CCC(=O)CCCCC[C@H](NC(=O)C1CN(C)C1)c1ncc(-c2cc3ccccc3nc2F)[nH]1	0.19
CC(=O)CCCCC[C@H](NC(=O)C1CCN(C)CC1)c1ncc(-c2ccc3ccccc3c2)[nH]1	0.3
CCC(=O)CCCCC[C@H](NC(=O)CCN1CCN(C)CC1)c1ncc(-c2cc(OC)c3ccccc3n2)[nH]1	0.39
CCC(=O)CCCCC[C@H](NC(=O)C1CN(C)C1)c1ncc(-c2ccc3nccnc3c2)[nH]1	1.2
CCC(=O)CCCCC[C@H](NC(=O)C1CCN(C)CC1)c1ncc(-c2cnc3ccccc3c2)[nH]1	0.25
Nc1ccccc1NC(=O)c1ccc(CNC(=O)OCc2cccnc2)cc1 [ENTINOSTAT]	1.8
CCC(=O)CCCCC[C@H](NC(=O)C1CCN(C)CC1)c1ncc(-c2cc3ccccc3cn2)[nH]1	0.022

Test system: A549
Experiment: Antiproliferative activity against human P53 expressing A549 cells after 72 hrs by celltiter-blue cell viability assay
Type: functional
Details: A549, 72 h

SMILES	CC50 [µM]
Nc1ccccc1NC(=O)c1ccc(CNC(=O)OCc2cccnc2)cc1 [ENTINOSTAT]	1.2

Test system: MCF7
Experiment: Antiproliferative activity against human MCF7 cells after 72 hrs by celltiter-blue cell viability assay
Type: functional
Details: not given

SMILES	CC50 [µM]
O=C(CCCCCCC(=O)Nc1ccccc1)NO [VORINOSTAT]	3

Test system: not listed separately
Experiment: Metabolic stability in rat liver microsomes assessed as intrinsic clearance at 1 uM after 90 mins
Type: ADME, Microsome
Details: not given

SMILES	microsomal CLint at 1 µM [µL/min/mg]
CCC(=O)CCCCC[C@H](NC(=O)CCN(C)C)c1ncc(-c2cc(OC)c3ccccc3n2)[nH]1	38
CCC(=O)CCCCC[C@H](NC(=O)C1CCN(C)CC1)c1ncc(-c2cc(OC)c3ccccc3n2)[nH]1	36
CCC(=O)CCCCC[C@H](NC(=O)C1CCN(C)CC1)c1ncc(-c2ccc3ccccc3c2)[nH]1	> 200
CCC(=O)CCCCC[C@H](NC(=O)C1CN(C)C1)c1ncc(-c2ccc3nccnc3c2)[nH]1	13
CCC(=O)CCCCC[C@H](NC(=O)C1CCN(C)CC1)c1ncc(-c2cc3ccccc3cn2)[nH]1	210

Continued, values first:

microsomal CLint at 1 µM [µL/min/mg]	SMILES
27	CCC(=O)CCCCC[C@H](NC(=O)C1CN(C)C1)c1ncc(-c2cnc3ccccc3n2)[nH]1
110	CCC(=O)CCCCC[C@H](NC(=O)C1CCN(C)CC1)c1ncc(-c2ccc3ccccc3n2)[nH]1
98	CCC(=O)CCCCC[C@H](NC(=O)C1CCN(C)CC1)c1ncc(-c2ccc3ncccc3c2)[nH]1
15	CCC(=O)CCCCC[C@H](NC(=O)C1CN(C)C1)c1ncc(-c2cc(OC)c3ccccc3n2)[nH]1
34	CCC(=O)CCCCC[C@H](NC(=O)C1CN(C)C1)c1ncc(-c2cc3ccccc3nc2F)[nH]1
190	CCC(=O)CCCCC[C@H](NC(=O)CCN1CCN(C)CC1)c1ncc(-c2cc(OC)c3ccccc3n2)[nH]1
510	CCC(=O)CCCCC[C@H](NC(=O)C1CCN(C)CC1)c1ncc(-c2cnc3ccccc3c2)[nH]1

Target: Histone deacetylase 1 (Homo sapiens, UniProt Q13547)
Details: not given

Sequence of Histone deacetylase 1 (Q13547 whole entry): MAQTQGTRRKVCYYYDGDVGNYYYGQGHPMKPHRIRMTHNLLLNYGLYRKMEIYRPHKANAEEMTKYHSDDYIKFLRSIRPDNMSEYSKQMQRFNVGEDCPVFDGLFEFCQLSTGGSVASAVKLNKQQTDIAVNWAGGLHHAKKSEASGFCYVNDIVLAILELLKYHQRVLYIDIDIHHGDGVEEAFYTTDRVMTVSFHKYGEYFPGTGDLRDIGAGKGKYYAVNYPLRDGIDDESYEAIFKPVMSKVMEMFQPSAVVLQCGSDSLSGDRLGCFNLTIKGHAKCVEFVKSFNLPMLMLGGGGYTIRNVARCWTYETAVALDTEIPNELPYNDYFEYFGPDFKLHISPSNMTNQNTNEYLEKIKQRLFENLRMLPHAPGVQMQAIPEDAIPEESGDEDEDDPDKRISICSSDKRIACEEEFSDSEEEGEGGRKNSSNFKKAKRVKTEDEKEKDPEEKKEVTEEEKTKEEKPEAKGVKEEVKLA

SMILES	IC50 [µM]
CCC(=O)CCCCC[C@H](NC(=O)CCN(C)C)c1ncc(-c2cc(OC)c3ccccc3n2)[nH]1	0.051
CCC(=O)CCCCC[C@H](NC(=O)C1CCN(C)CC1)c1ncc(-c2cc(OC)c3ccccc3n2)[nH]1	0.03
CCC(=O)CCCCC[C@H](NC(=O)C1CN(C)C1)c1ncc(-c2ccc3nccnc3c2)[nH]1	0.039
CCC(=O)CCCCC[C@H](NC(=O)C1CCN(C)CC1)c1ncc(-c2cc3ccccc3cn2)[nH]1	0.008

The next lines start with the values.

IC50 [µM]	SMILES
0.008	CCC(=O)CCCCC[C@H](NC(=O)C1CN(C)C1)c1ncc(-c2cnc3ccccc3n2)[nH]1
0.022	CCC(=O)CCCCC[C@H](NC(=O)C1CCN(C)CC1)c1ncc(-c2ccc3ccccc3n2)[nH]1
0.002	CCC(=O)CCCCC[C@H](NC(=O)C1CCN(C)CC1)c1ncc(-c2ccc3ncccc3c2)[nH]1
0.162	CCC(=O)CCCCC[C@H](NC(=O)C1CN(C)C1)c1ncc(-c2cc(OC)c3ccccc3n2)[nH]1
0.008	CCC(=O)CCCCC[C@H](NC(=O)C1CN(C)C1)c1ncc(-c2cc3ccccc3nc2F)[nH]1
0.017	CCC(=O)CCCCC[C@H](NC(=O)CCN1CCN(C)CC1)c1ncc(-c2cc(OC)c3ccccc3n2)[nH]1
0.004	CCC(=O)CCCCC[C@H](NC(=O)C1CCN(C)CC1)c1ncc(-c2cnc3ccccc3c2)[nH]1

Test system: not listed separately
Experiment: Metabolic stability in dog liver microsomes assessed as intrinsic clearance at 1 uM after 90 mins
Type: ADME, Canis lupus familiaris, Microsome
Details: liver microsomes

SMILES	microsomal CLint at 1 µM [µL/min/mg]
CCC(=O)CCCCC[C@H](NC(=O)CCN(C)C)c1ncc(-c2cc(OC)c3ccccc3n2)[nH]1	6
CCC(=O)CCCCC[C@H](NC(=O)C1CCN(C)CC1)c1ncc(-c2cc(OC)c3ccccc3n2)[nH]1	5
CCC(=O)CCCCC[C@H](NC(=O)C1CCN(C)CC1)c1ncc(-c2ccc3ccccc3c2)[nH]1	194
CCC(=O)CCCCC[C@H](NC(=O)C1CN(C)C1)c1ncc(-c2ccc3nccnc3c2)[nH]1	3
CCC(=O)CCCCC[C@H](NC(=O)C1CCN(C)CC1)c1ncc(-c2cc3ccccc3cn2)[nH]1	18

Next, values leading:

microsomal CLint at 1 µM [µL/min/mg]	SMILES
20	CCC(=O)CCCCC[C@H](NC(=O)C1CN(C)C1)c1ncc(-c2cnc3ccccc3n2)[nH]1
9	CCC(=O)CCCCC[C@H](NC(=O)C1CCN(C)CC1)c1ncc(-c2ccc3ccccc3n2)[nH]1
23	CCC(=O)CCCCC[C@H](NC(=O)C1CCN(C)CC1)c1ncc(-c2ccc3ncccc3c2)[nH]1
9	CCC(=O)CCCCC[C@H](NC(=O)C1CN(C)C1)c1ncc(-c2cc(OC)c3ccccc3n2)[nH]1
28	CCC(=O)CCCCC[C@H](NC(=O)C1CN(C)C1)c1ncc(-c2cc3ccccc3nc2F)[nH]1
170	CCC(=O)CCCCC[C@H](NC(=O)CCN1CCN(C)CC1)c1ncc(-c2cc(OC)c3ccccc3n2)[nH]1
24	CCC(=O)CCCCC[C@H](NC(=O)C1CCN(C)CC1)c1ncc(-c2cnc3ccccc3c2)[nH]1

Same assay, conditions: microsomes, 1.5 h, 1 µM

SMILES	CL [µL/min/mg]
CC(=O)CCCCC[C@H](NC(=O)C1CCN(C)CC1)c1ncc(-c2ccc3ccccc3c2)[nH]1	194
